Literature values, collected in US20250177320A1 (CinRx Pharma, LLC, priority 2017, published 2025).

## Oc1cc(O)cc(O)c1 [Phloroglucinol, 1,3,5-benzenetriol]
After an oral dose
  bioavailability (absorption): 47%
plasma
  plasma half-life: 1.5 h
Single oral dose of 160 mg
  peak blood concentration: 677 ng/mL
  time to peak blood concentration: 20 min
